According to ChEMBL document CHEMBL1122129, “Estrogenic and antiestrogenic activity of monophenolic analogues of tamoxifen, (Z)-2-[p-(1,2-diphenyl-1-butenyl)phenoxy]-N, N-dimethylethylamine” (J Med Chem, 1982):

Columns and labels:
[1] = target: T1, Estrogen receptor (Rattus norvegicus) (UniProt P06211+Q62986)
Description: Anti-uterotrophic effect in rats at 50 ug/animal/day in the presence of 0.5 ug estradiol benzoate

[2] = target: T1, Estrogen receptor (Rattus norvegicus); conditions: Uterus
Description: Uterotrophic effect in rats at 50 ug/animal/day hydroxytamoxifen

Row | Antiuterotropic effect [1] | Uterotropic effect [2] | Structure (SMILES)
1 | 21.6 | 24 | C[C@]12CC[C@@H]3c4ccc(OC(=O)c5ccccc5)cc4CC[C@H]3[C@@H]1CC[C@@H]2O
2 | 16.7 | 6.7 | CC/C(=C(/c1ccc(OCCN(C)C)cc1)c1cccc(O)c1)c1ccccc1
3 | 15.7 | 10.1 | CC/C(=C(\c1ccccc1)c1ccc(OCCN(C)C)cc1)c1cccc(O)c1
4 | 19.7 | 5.7 | CC/C(=C(/c1ccccc1)c1ccc(OCCN(C)C)cc1)c1cccc(O)c1

Row | Structure (SMILES) | Antiuterotropic effect [1] | Uterotropic effect [2]
5 | CC/C(=C(/c1ccccc1)c1ccc(OCCN(C)C)cc1)c1ccc(O)cc1 | 15.7 | 11
